Legend:
NCI/ADR-RES = assay: SRB growth assay, NCI/ADR-RES; assay type: cell-based; conditions: Homo sapiens, NCI/ADR-RES (Ovarian), 48 hours, read-out: Percent viability
Source text: (§1) Tested cell lines included, Leukemia: CCRF-CEM, HL-60(TB), MOLT-4, RPMI-8226 and SR; Non-Small Cell Lung: A549/ATCC, EKVX, HOP-62, HOP-92, NCI-H226, NCI-H23, NCI-H322M, NCI-H460 and NCI-H522; Colon: COLO 205, HCC-2998, HCT-116, HCT-15. HT29, KM12 and SW-620; CNS: SF-268, SF-295, SF-539, SNB-19, SNB-75 and U251; Melanoma: LOX IMVI, MALME-3M, M14, MDA-MB-435, SK-MEL-2, SK-MEL-28, SK-MEL-5, UACC-257 and UACC-62; Ovarian: IGR-OV1, OVCAR-3, OVCAR-4, OVCAR-5, OVCAR-8. NCI/ADR-RES and SK-OV-3; Renal: 786-0, A498, ACHN, CAKI-1, RXF 393, SN12C, TK-10 and UO-31; Prostate: DU-145 and PC-3; and Breast: MCF7, MDA-MB-231/ATCC, MDA-MB-468, HS 578T, BT-549 and T-47D.
(§2) The cells were cultured in RPMI1640 media supplemented with 10% Fetal Bovine Serum (FBS), 2 mM glutamine and with 5% CO2 and 37° C. For experiment, 5% of FBS and 50 ug/mL of gentamycin were used. Test articles were 10 μM of NUCL 381-3 or 10 μM NUCL 383-3. The positive control was 10 μM of doxorubicin.
(§3) Cells were plated in 96 well plates. The cells were plated in triplicate. Cells were plated at the densities based on NCI recommendation. Time zero cells (Tz) were fixed the following day with 50% or 80% ice cold Trichloracetic acid (TCA) and washed 5× with water. At 48 hours post addition of treatments, all remaining plates were fixed in 80% ice cold Trichloracetic acid (TCA) and washed 5× with water. After drying, one hundred microliters of 0.4% Sulphorhodamine B (SRB) in 1% acetic acid was added to each plate including the Tzero plate and incubated for 10 minutes at room temperature. After 5 additional washes with 1% acetic acid, plates were allowed to dry. One hundred microliters of Trizma base was added to each well and plates were read at 515 nm.
(§4) Percent of growth was calculated by the following formulas: [Ti/C]×100, where: Tz=absorbance readings for wells at time zero without treatment; C=absorbance readings of untreated cells (without treatment); and Ti=absorbance reading of wells with treatment.

OVCAR-3 = assay: SRB growth assay, OVCAR-3; assay type: cell-based; conditions: Homo sapiens, OVCAR-3 (Ovarian), 48 hours, read-out: Percent viability
Source text: as §1, §2, §3, §4

RPMI-8226 = assay: SRB growth assay, RPMI-8226; assay type: cell-based; conditions: Homo sapiens, RPMI-8226 (Leukemia), 48 hours, read-out: Percent viability
Source text: as §1, §2, §3, §4

SK-MEL-2 = assay: SRB growth assay, SK-MEL-2; assay type: cell-based; conditions: Homo sapiens, SK-MEL-2 (Melanoma), 48 hours, read-out: Percent viability
Source text: as §1, §2, §3, §4

OVCAR-4 = assay: SRB growth assay, OVCAR-4; assay type: cell-based; conditions: Homo sapiens, OVCAR-4 (Ovarian), 48 hours, read-out: Percent viability
Source text: as §1, §2, §3, §4

MALME-3M = assay: SRB growth assay, MALME-3M; assay type: cell-based; conditions: Homo sapiens, MALME-3M (Melanoma), 48 hours, read-out: Percent viability
Source text: as §1, §2, §3, §4

BT-549 = assay: SRB growth assay, BT-549; assay type: cell-based; conditions: Homo sapiens, BT-549 (Breast), 48 hours, read-out: Percent viability
Source text: as §1, §2, §3, §4

OVCAR-5 = assay: SRB growth assay, OVCAR-5; assay type: cell-based; conditions: Homo sapiens, OVCAR-5 (Ovarian), 48 hours, read-out: Percent viability
Source text: as §1, §2, §3, §4

CCRF-CEM = assay: SRB growth assay, CCRF-CEM; assay type: cell-based; conditions: Homo sapiens, CCRF-CEM (Leukemia), 48 hours, read-out: Percent viability
Source text: as §1, §2, §3, §4

MM1S = assay: SRB growth assay, MM1S; assay type: cell-based; conditions: Homo sapiens, MM1.S, MM1S (Multiple Myeloma), 48 hours, read-out: Percent viability
HOP-92 = assay: SRB growth assay, HOP-92; assay type: cell-based; conditions: Homo sapiens, HOP-92 (Non-Small Cell Lung), 48 hours, read-out: Percent viability
Source text: as §1, §2, §3, §4

HCT-116 = assay: SRB growth assay, HCT-116; assay type: cell-based; conditions: Homo sapiens, HCT-116 (Colon), 48 hours, read-out: Percent viability
Source text: as §1, §2, §3, §4

PC-3 = assay: SRB growth assay, PC-3; assay type: cell-based; conditions: Homo sapiens, PC-3 (Prostate), 48 hours, read-out: Percent viability
Source text: as §1, §2, §3, §4

KM12 = assay: SRB growth assay, KM12; assay type: cell-based; conditions: Homo sapiens, KM12 (Colon), 48 hours, read-out: Percent viability
Source text: as §1, §2, §3, §4

HOP-62 = assay: SRB growth assay, HOP-62; assay type: cell-based; conditions: Homo sapiens, HOP-62 (Non-Small Cell Lung), 48 hours, read-out: Percent viability
Source text: as §1, §2, §3, §4

NCI-60 Cell Lines = assay: Inhibiting growth of NCI-60 cell lines (panel summary); assay type: cell-based, human; conditions: 10 μM, compared to doxorubicin
Protocol: NUCL 381-3 and NUCL 383-3 (referred to as “NUCC-00381” and “NUCC-000383” above, respectively) were administered to a variety of cancer cell lines in order to test their ability to inhibit cell growth as compared to doxorubicin.
as §1
The cells were cultured in RPMI1640 media supplemented with 10% Fetal Bovine Serum (FBS), 2 mM glutamine and with 5% CO2 and 37° C. […]
Cells were plated in 96 well plates. […] One hundred microliters of Trizma base was added to each well and plates were read at 515 nm.
as §4

U937 cell lines = assay: Immunoblot of PARP cleavage and cleaved caspase 3; assay type: cell-based, human; conditions: U937 cell lysates, FIG. 17
Protocol: FIG. 17. Immunoblot of cell lysates from U937 cell lines treated with Compounds 381, 383, 409 (as test compounds) and Compound 501 (as a negative control) as compared to 8-amino adenosine (8NH2-Ado) and 8-chloro adenosine (8Cl-Ado) (as positive controls). The impact of the compounds on proteins associated with cell death was assessed via performing an immunoblot. (See FIG. 17). PARP cleavage indicated activation of the caspase cascade and cell death by induction of apoptosis. Similarly detection of cleaved caspase 3 indicated activation of caspase activity and cell death by apoptosis. GAPDH was included as a loading control to indicate approximately equal loading of protein.

Row | Structure (SMILES) | viability at 10 µM (NCI/ADR-RES) [%] | viability at 10 µM (OVCAR-3) [%] | viability at 10 µM (RPMI-8226) [%] | viability at 10 µM (SK-MEL-2) [%] | viability at 10 µM (OVCAR-4) [%] | viability at 10 µM (MALME-3M) [%] | viability at 10 µM (BT-549) [%] | viability at 10 µM (OVCAR-5) [%] | viability at 10 µM (CCRF-CEM) [%] | viability at 10 µM (MM1S) [%] | viability at 10 µM (HOP-92) [%] | viability at 10 µM (HCT-116) [%] | viability at 10 µM (PC-3) [%] | viability at 10 µM (KM12) [%] | viability at 10 µM (HOP-62) [%] | cell viability across NCI-60 cell lines (NCI-60 Cell Lines) | induction of apoptosis (PARP cleavage, cleaved caspase 3) (U937 cell lines)
1 | COc1cccc2c1C(=O)c1c(O)c3c(c(O)c1C2=O)C[C@@](O)(C(=O)CO)C[C@@H]3O[C@H]1C[C@H](N)[C@H](O)[C@H](C)O1 [Doxorubicin, reference compound] | 78.8 | 16.8 | 44.2 | 11.6 | 103 | 15.8 | 62.5 | 57.1 | 43.6 | 26.4 | 98.5 | 14.9 | 50 | 71.8 | 19.7 | – | –
2 | FC(F)(F)c1cn(CC2CCNCC2)c2ncnc(Cl)c12 [NUCC-0000381] | 93.3 | 48.7 | 100 | 106 | 53 | 101 | 103 | 76.8 | 52.8 | 52.3 | 56.8 | 20.1 | 8.43 | 31 | 15.7 | reduce cell viability for a number of cell lines | Induction of apoptosis was observed
3 | CS(=O)(=O)N1CCC(Cn2cc(C(F)(F)F)c3c(Cl)ncnc32)CC1 [NUCC-0000383] | 99 | 95.5 | 100 | 14.7 | 97 | 42.7 | 79.2 | 104 | 54 | 58.2 | 97.6 | 15 | 3.55 | 99.5 | 88.5 | – | –

— patent publication US9981968B2, “Substituted pyrrolo[2,3-d]pyrimidines for the treatment of cancer and proliferative disorders” (Northwestern University, priority 2013, dated 2018)
